From patent US9889176B2, “Treating renal and liver dysfunction with TLR4 antagonists” (YAQRIT LIMITED, priority 2010, dated 2018) come the findings set out here.

One assay concerns BDL rats. The assay can be described thus: Brain TLR4 expression, brain water and survival in BDL rats with or without LPS. It counts as in vivo. As to conditions: for brain TLR4 immunohistochemistry: FIG. 23. The source says:
(§1) These experiments utilised an established animal model of cirrhosis, the bile duct ligated (BDL) rat. BDL rats may be generated by methods known in the art. For example, male Sprague-Dawley rats (200-250 g) may be used for this procedure. Following anaesthetisation, a mid-line laparotamy may be performed, the bile duct exposed, triply ligated with 4.0 silk suture, and severed between the second and third ligature. The wound is then closed in layers with absorbable suture, and the animal allowed to recover in a quiet room before being returned to the animal storage facility. 6 groups of Sprague-Dawley rats were studied: n=6 in each group. […] Experiments were carried out using Sham treated and BDL rats as described above.

The test system of assay [1] is bile duct ligated (BDL) rat. The assay can be described thus: Bile duct ligated (BDL) rat model of cirrhosis with or without LPS: renal dysfunction, selective gut decontamination. As to conditions: for kidney TLR4 protein expression (Western Blot) / plasma creatinine: Norfloxacin 20 mg/kg orally for 10 days; for kidney TLR4 protein expression (Western Blot): FIG. 9; for NFkBp65 expression in Kidney: FIG. 10; for plasma creatinine: FIG. 8. It counts as in vivo, Sprague-Dawley rats.
Description: as §1, with “The aims of this study was to determine (1) Whether cirrhosis is associated with an upregulation of TLR4, NFkB and proinflammatory cytokines in kidney. […] Biochemistry: Functional aspect of Kidneys was assessed by measuring plasma creatinine. Protein expression of TLR4 and NFkBp65 was assessed using a commonly used Western Blot technique. Localisation of TLR4 and Caspase (effector protein leading to cell death) was done by Immunohistochemistry. Cytokines” for “Experiments”, “quantified” for “carried out”, “the ELISA bead array.” for “Sham treated and BDL rats as described above.”
A general note: Immunoblotting shows a protein as a band on a membrane.

Setting [2] is: BDL and BDL+LPS groups, FIG. 13.

Molecules are shown by their SMILES.

For `CCn1cc(C(=O)O)c(=O)c2cc(F)c(N3CCNCC3)cc21` [Norfloxacin], the “brain TLR4 immunohistochemistry” value in the assay with BDL rats (BDL animals treated with LPS) and in the assay with BDL rats (BDL animals) was “could be prevented” in each case. Besides, the “brain TLR4 protein expression” value in the assay on BDL rats (increase in BDL and BDL+LPS rats, FIG. 22) is given as “could be prevented”. For the same compound, the “brain swelling measured by brain water” value in the assay on BDL rats (increase in BDL and BDL+LPS rats, FIG. 24) is recorded as “could be prevented”. Also, in assay [1] (BDL and BDL+LPS groups, FIG. 11), the “kidney TNFα” value is reported as “prevented the rise”. Moreover, the “Kidney IL6 (local IL6 production)” value in assay [1] (BDL and BDL+LPS groups, FIG. 12) is recorded as “no effect”. Moreover, in assay [1] (setting [2]), the “plasma IL6 (systemic proinflammatory cytokine)” value is listed as “reducing the secretion of cytokines”. The “plasma TNFα (systemic proinflammatory cytokine)” value in assay [1] (setting [2]) is on record as “reducing the secretion of cytokines”. Also, the “kidney caspase 3 (cell death), immunohistochemistry” value in assay [1] (BDL and BDL+LPS groups, FIG. 16) is “reduction in the caspase positivity”. Further, the “kidney TLR4 protein expression (Western Blot)” value in assay [1] (BDL group administered LPS, p=0.02) was “reduced”; in assay [1] (BDL rats, p=0.02), “reduced”. The “NFkBp65 expression in Kidney” value is recorded as “attenuated” in assay [1] (BDL rats administered LPS, p=0.01) and “attenuated” in assay [1] (BDL rats, p=0.02). Besides, the plasma creatinine result is recorded as “reduction” in assay [1] (BDL rats, p=0.02) and “reduction” in assay [1] (BDL+LPS rats, p=0.03). Further, in assay [1] (BDL rats, selective gut decontamination), the “renal failure induced by LPS” value is listed as “prevents renal failure”.
